According to patent US20030185914A1, “Process for isolating artemisinin from artemisia annua” (priority 2002, published 2003):

Assay: Partitioning of pure artemisinin between hexane and aqueous ethanol (1:1 v/v), layers quantified by TLC
Assay type: physicochemical
Description: To select an efficient solvent for extraction of artemisinin different solvents systems were tested. For this 10 g of dry powdered leaves of Artemisia annua were extracted with methanol, 20% aqueous methanol, ethanol, 20% aqueous ethanol or hexane as a solvent individually in separate tubes. 10 ml of the solvent was taken out of the tube at 2, 4 and 6 h of incubation. The fraction was evaporated to dryness on a water bath, extract was solubilized in 2.0 ml solvent and spots (5 μl) were loaded on a TLC plate along with pure artemisinin dissolved in the respective solvent @ 1 mg/ml taken as controls. The TLC was carried out in a glass TLC tank saturated with the mobile phase hexane:diethyl ether (1:1), plates were developed to a height of 15 cm. Later plates were dried and spots were visualized by immersing the plates in a developing reagent (glacial acetic acid:sulfuric acid:anisaldehyde, 50:1:0.5), followed by heating the plate at 110° C. for 15 minutes or until pink spots of artemisinin appeared. For quantification, TLC spots corresponding to artemisinin were scanned at 540 and 610 nm dual wavelength mode of TLC scanner. It is clear from the table that pure ethanol and methanol rapidly extract the artemisinin as compared to hexane, however after a certain period of time concentration of artemisinin starts diminishing in methanol and ethanol extracts in contrast to hexane extract possibly because of decomposition or transformation of artemisinin into another unknown compound. Mixing of water in methanol caused a severe decay of artemisinin extraction. Ethanol was more efficient for extracting more artemisinin in less time period as compared to methanol and hexane both. On the basis of lower cost and rapid extraction efficiency ethanol will be a suitable solvent.
Pure artemisinin (0.2 g) was dissolved in different test tubes containing 1:1 (v/v) mixture of two non-miscible solvents, hexane and aqueous ethanol (i.e. ethanol mixed in water), where concentration of ethanol varied from 20 to 80%. After completely solubilizing the artemisinin in the mixture, two layers of hexane and ethanol were separated with the help of a separating funnel. The individual layer from different test tube was tested for the presence of artemisinin content by TLC as in example 1. The results showing the % fraction of artemisinin partitioned between the hexane and aqueous ethanolic layers separated from each tube are given in the Table -2.

[1] = Hexane:20% aqueous-ethanol (1:1 v/v)
[2] = Hexane:40% aqueous-ethanol (1:1 v/v)
[3] = Hexane:60% aqueous-ethanol (1:1 v/v)
[4] = Hexane:80% aqueous-ethanol (1:1 v/v)

C[C@@H]1CC[C@H]2[C@@H](C)C(=O)O[C@@H]3O[C@@]4(C)CC[C@@H]1[C@]32OO4 [artemisinin]
% artemisinin in ethanol layer [1]: 100% | % artemisinin in hexane layer [1]: 0% | % artemisinin in ethanol layer [2]: 90% | % artemisinin in hexane layer [2]: 10% | % artemisinin in ethanol layer [3]: 30% | % artemisinin in hexane layer [3]: 70% | % artemisinin in ethanol layer [4]: 0% | % artemisinin in hexane layer [4]: 100%
